One molecule from ChEMBL document CHEMBL4354877, “MymA Bioactivated Thioalkylbenzoxazole Prodrug Family Active against Mycobacterium tuberculosis” (J Med Chem, 2020) can be followed below.

One may read the IC50 as the concentration that inhibits the measured activity by half. For orientation: MIC means the least concentration at which growth counts as inhibited. Broadly, the solubility is how much of the substance goes into solution per volume. As a reminder, the IC90 is the concentration needed for an effect of 90%.

≈ marks a conversion by molar mass, not a printed value. Calls of active or inactive are those of the source. The rule behind the calls is not given here.

One series deals with HepG2. In words: Cytotoxicity in human HepG2 cells assessed as reduction in cell viability incubated for 48 hrs by Cell-titer Glo kit based assay. To be noted: HepG2, 48 h.
Series [1] concerns the target T1, Cytochrome P450 3A4 (Homo sapiens, UniProt P08684). The series is described as follows: Inhibition of CYP3A4 (unknown origin) in presence of cofactor. The class given is ADME.
For series [2], the system named is Mycobacterium tuberculosis. In words: Antimycobacterial activity against Mycobacterium tuberculosis extracellular forms assessed as inhibition of microbial growth. Type of series: functional.
The next series relates to Hepatocyte. In words: Cytotoxicity in human primary hepatocytes assessed as reduction in cell viability up to 100 uM incubated for 72 hrs by MTT assay. The class given is cell-based. (Tetrazolium assays rely on reduction of a dye to a coloured formazan, in cell work by metabolically active cells.)
Another series has as its system THP-1. In words: Cytotoxicity in human THP1 cells assessed as reduction in cell viability incubated for 5 days hrs by ATPLite assay. The class given is cell-based. The note with it: THP-1, 120 h. On the technique in general: ATP-based viability assays read luminescence as a measure of living cells.
Series [3] is described as follows: Intrinsic clearance in mouse liver microsomes at 0.5 uM incubated for 45 mins in presence of NADPH by LC-MS/MS analysis. The class given is ADME, Microsome. To be noted: 0.75 h. In general terms: Liver microsomes are vesicles of endoplasmic reticulum, rich in cytochrome P450 enzymes.
For series [4], the system named is Mycobacterium tuberculosis. The series is described as follows: Antimycobacterial activity against Mycobacterium tuberculosis H37Rv infected in C57BL/6 mouse model of acute infection assessed as reduction in mycobacterial load in lung at 200 mg/kg dosed once per day for 8 days co-dosed with 50 mg/kg/day CYP inhibitor ABT. The class given is functional, organism-based.

Series [5] is described as follows: Kinetic aqueous solubility in pH 7.4 PBS incubated for 1 hr by CLND assay. The class given is physicochemical. The note with it: read-out: Kinetic_solubility.
Series [6] has as its target T1, Cytochrome P450 3A4. The series is described as follows: Inhibition of CYP3A4 (unknown origin) in absence of cofactor. Type of series: ADME.
Series [7] can be described thus: Solubility in pH 6.5 FaSSIF incubated for 4 hrs by HPLC-UV based assay. Type of series: physicochemical.
The nature of series [8]: Stability in human liver microsomes assessed as GSH-conjugates formation at 25 uM incubated for 60 mins in presence of NADPH and GSH by LC-MS/MS analysis. The class given is ADME, Microsome. To be noted: 1 h.
The test system of series [9] is Mycobacterium tuberculosis. In words: Antimycobacterial activity against Mycobacterium tuberculosis H37Rv assessed as inhibition of microbial growth incubated for 6 days by alamar blue resazurin assay. Type of series: functional. To be noted: 144 h.
The test system of series [10] is Mycobacterium tuberculosis. In words: Antimycobacterial activity against Mycobacterium tuberculosis H37Rv intracellular forms infected in human THP1 cells assessed as inhibition of microbial growth incubated for 5 days by luciferase reporter gene assay. Type of series: functional. The note with it: THP-1, 120 h.
Series [11] in a line: Intrinsic clearance in human liver microsomes at 0.5 uM incubated for 45 mins in presence of NADPH by LC-MS/MS analysis. Type of series: ADME, Microsome. The note with it: 0.75 h.
Series [12] can be described thus: Permeability at pH 7.4 incubated for 4 hrs by PAMPA method. The class given is ADME. To be noted: read-out: permeability.

T1 sequence (P08684 whole entry): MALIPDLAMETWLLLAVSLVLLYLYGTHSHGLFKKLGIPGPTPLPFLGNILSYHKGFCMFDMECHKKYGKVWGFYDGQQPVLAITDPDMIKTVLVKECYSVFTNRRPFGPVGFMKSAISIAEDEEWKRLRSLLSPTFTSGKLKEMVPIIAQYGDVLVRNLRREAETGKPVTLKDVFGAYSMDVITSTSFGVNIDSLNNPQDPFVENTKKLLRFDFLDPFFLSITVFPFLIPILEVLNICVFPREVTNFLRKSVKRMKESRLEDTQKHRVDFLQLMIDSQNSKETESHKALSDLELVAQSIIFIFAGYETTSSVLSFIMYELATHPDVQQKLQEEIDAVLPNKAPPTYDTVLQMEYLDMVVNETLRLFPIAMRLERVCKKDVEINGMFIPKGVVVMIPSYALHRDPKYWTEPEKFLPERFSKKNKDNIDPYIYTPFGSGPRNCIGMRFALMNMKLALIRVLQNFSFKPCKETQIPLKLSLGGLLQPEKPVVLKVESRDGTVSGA

For the molecule `O=C(CCSc1nc2cc(Cl)ccc2o1)N1CCCC1`, the IC50 with HepG2 is more than 100 µM; on Cytochrome P450 3A4 [1], more than 39.8 µM; with THP-1 it was more than 50 µM; against Cytochrome P450 3A4 [6], more than 39.8 µM. Moreover, the MIC in [2] and in series [9] was 10 µM each time. Moreover, the Activity entry in the series with Hepatocyte is given as “Non-Toxic”. The values for the CLH in series [3] and in series [11] were 131 to 132 mL/min/g and 5.8 mL/min/g, respectively. Further, the outcome in series [4] was inactive. The solubility kinetic at 1 h in series [5] is more than 362 µM. The solubility at 4 h in series [7] turned out to be 8 µg/mL (≈ 25.7 µM). In addition, in series [8], the Stability result is “Stable”. The IC90 in series [10] is 2.8 µM. Moreover, the Papp at 4 h in [12] is 78 ×10⁻⁶ cm/s.
